Key:
Type in all cases: biochemical
[1] = biological target: Thermus aquaticus T-Rex FRET biosensor construct #14 (Rex(A)-mEGFP-Rex(B)-mKOk, SEQ ID NO: 174), library variant 1-G8, SEQ ID NO: 16 (Thermus aquaticus, UniProt Q9X2V5, E116G/F189I/K117M/K47E/R46D/R58D/S30A/Y98W); assay: Signal window in bacterial lysates, FRET ratio in presence or absence of 200 uM NADH (Table 2); conditions: clone 1-G8, SEQ ID NO: 16
Description: (§1) In specific embodiments, the fusion protein comprises the amino acid sequence selected from the group consisting of SEQ ID NO: 13-93, 95-154, and 191-193; the sequences are provided in Table 2 and the examples.
(§2) Protein library DNA was generated following cloning that assembled pieces of DNA that were generated using PCRs with mixtures of primers. DNA was transformed into E. coli, and the first round of protein library expression was done in bacterial colonies on agar plates. The colonies, each expressing different library members, were imaged, and then classified into groups based on their FRET ratio signal. Colonies from different groups were inoculated into 96-deep-well plates for further protein expression in liquid culture. The original construct that was used to generate the library (e.g., construct #14 in Table 2) was also inoculated on the same plates, along with non-expressing bacteria. The latter served as a negative control.

[2] = biological target: Thermus aquaticus T-Rex FRET biosensor construct #14 (Rex(A)-mEGFP-Rex(B)-mKOk, SEQ ID NO: 174), library variant 1-A7, SEQ ID NO: 20 (Thermus aquaticus, UniProt Q9X2V5, E116G/F189I/K117M/K47E/R46D/R58D/S30A/Y98W); assay: as above; conditions: clone 1-A7, SEQ ID NO: 20
Description: as §1, §2

[3] = biological target: Thermus aquaticus T-Rex FRET biosensor construct #14 (Rex(A)-mEGFP-Rex(B)-mKOk, SEQ ID NO: 174), library variant 3-C8, SEQ ID NO: 14 (Thermus aquaticus, UniProt Q9X2V5, E116G/F189I/K117M/K47E/R46D/R58D/S30A/Y98W); assay: as above; conditions: clone 3-C8, SEQ ID NO: 14
Description: as §1, §2

[4] = biological target: Thermus aquaticus T-Rex FRET biosensor construct #14 (Rex(A)-mEGFP-Rex(B)-mKOk, SEQ ID NO: 174), library variant 2-F3, SEQ ID NO: 15 (Thermus aquaticus, UniProt Q9X2V5, E116G/F189I/K117M/K47E/R46D/R58D/S30A/Y98W); assay: as above; conditions: clone 2-F3, SEQ ID NO: 15
Description: as §1, §2

[5] = biological target: Thermus aquaticus T-Rex FRET biosensor construct #14 (Rex(A)-mEGFP-Rex(B)-mKOk, SEQ ID NO: 174), library variant 4-D10, SEQ ID NO: 17 (Thermus aquaticus, UniProt Q9X2V5, E116G/F189I/K117M/K47E/R46D/R58D/S30A/Y98W); assay: as above; conditions: clone 4-D10, SEQ ID NO: 17
Description: as §1, §2

[6] = biological target: Thermus aquaticus T-Rex FRET biosensor construct #14 (Rex(A)-mEGFP-Rex(B)-mKOk, SEQ ID NO: 174), library variant 4-F1, SEQ ID NO: 18 (Thermus aquaticus, UniProt Q9X2V5, E116G/F189I/K117M/K47E/R46D/R58D/S30A/Y98W); assay: as above; conditions: clone 4-F1, SEQ ID NO: 18
Description: as §1, §2

[7] = biological target: Thermus aquaticus T-Rex FRET biosensor construct #14 (Rex(A)-mEGFP-Rex(B)-mKOk, SEQ ID NO: 174), library variant 1-F8, SEQ ID NO: 13 (Thermus aquaticus, UniProt Q9X2V5, E116G/F189I/K117M/K47E/R46D/R58D/S30A/Y98W); assay: as above; conditions: clone 1-F8, SEQ ID NO: 13
Description: as §1, §2

[8] = biological target: Thermus aquaticus T-Rex FRET biosensor construct #14 (Rex(A)-mEGFP-Rex(B)-mKOk, SEQ ID NO: 174), library variant 4-A2, SEQ ID NO: 19 (Thermus aquaticus, UniProt Q9X2V5, E116G/F189I/K117M/K47E/R46D/R58D/S30A/Y98W); assay: as above; conditions: clone 4-A2, SEQ ID NO: 19
Description: as §1, §2

[9] = biological target: Thermus aquaticus T-Rex FRET fusion, initial construct #11, mKOk-Rex(A)-cpmEGFP(173/174)-Rex(B), SEQ ID NO: 171 (Thermus aquaticus, UniProt Q9X2V5, E116G/F189I/K117M/K204T/K47E/R46D/R58D/S30A/Y98W); assay: FRET response (emission spectra) of purified initial construct #11 in absence or presence of 40 uM NADH; design: key: Good response: Constructs with very clear and robust spectra separation; Poor response: those with noticeable but small spectra separation; No response: those having no spectra separation
Protocol: (§3) 16 initial FRET constructs (See Table 3) were constructed using expression vector pET28c with a T7 promoter and lac operator and expressed in E. coli. Cells were collected and lysed using a commercially-available lysis buffer. Proteins of interest were isolated from the lysates using Ni-NTA magnetic beads. Eluted proteins were subjected to buffer exchange and final protein concentrating. To test performance of the initial FRET constructs, their emission spectra was recorded on a plate reader in absence or presence of 40 uM NADH. Resulting emission spectra with or without the ligand were normalized and overlaid for each construct. Constructs with very clear and robust spectra separation were labeled as having “good response”, those with noticeable but small spectra separation were labeled as having “poor response”, and finally those having no spectra separation were labeled as having “no response”.

[10] = biological target: T1, Thermus aquaticus T-Rex FRET fusion, initial construct #3, mKOk-Rex(78-211)-Rex(78-189)-cpmEGFP(145/146)-Rex(190-211), SEQ ID NO: 163 (Thermus aquaticus, UniProt Q9X2V5, INS189[…]); assay: FRET response (emission spectra) of purified initial construct #3 in absence or presence of 40 uM NADH; design: key: Good response: Constructs with very clear and robust spectra separation; Poor response: those with noticeable but small spectra separation; No response: those having no spectra separation
T1 construct: His-tag purified from E. coli
Protocol: as §3

[11] = biological target: T2, Thermus aquaticus T-Rex FRET fusion, initial construct #4, Rex(78-211)-Rex(78-189)-cpmEGFP(145/146)-Rex(190-211)-mKOk, SEQ ID NO: 164 (Thermus aquaticus, UniProt Q9X2V5, INS189[…]); assay: FRET response (emission spectra) of purified initial construct #4 in absence or presence of 40 uM NADH; design: key: Good response: Constructs with very clear and robust spectra separation; Poor response: those with noticeable but small spectra separation; No response: those having no spectra separation
T2 construct: His-tag purified from E. coli
Protocol: as §3

NC(=O)C1=CN([C@@H]2O[C@H](COP(=O)(O)OP(=O)(O)OC[C@H]3O[C@@H](n4cnc5c(N)ncnc54)[C@H](O)[C@@H]3O)[C@@H](O)[C@H]2O)C=CC1 [NADH] was tested, and the “Signal window (ex mode), measured in lysates” value (from here on “Signal window (ex mode)”) [1] was 0.34, the “Signal window (ex mode)” value [2] was 0.31 and the “Signal window (ex mode)” value [3] was 0.4. For the same molecule, the “Signal window (ex mode)” value [4] was 0.34, the “Signal window (ex mode)” value [5] was 0.34 and the “Signal window (ex mode)” value [6] was 0.33. The “Signal window (ex mode)” value [7] was 0.55, the “Signal window (ex mode)” value [8] was 0.32 and the “FRET response to NADH” value [9] was “Poor response”. For the same molecule, the “FRET response to NADH” value [10] was “No response” and the “FRET response to NADH” value [11] was “No response”.
